Experiment [1] concerns the target T1, Hydroxycarboxylic acid receptor 3 (Homo sapiens, UniProt P49019). As to the kind of experiment: Agonist activity at GPR109b receptor transfected in CHOK1 cells assessed as inhibition of forskolin-induced cAMP generation by HTRF assay. Format: functional, cell-based, CHO-K1. For orientation: TR-FRET usually uses a lanthanide donor and a delayed reading to cut background.

The target in experiment [2] is Hydroxycarboxylic acid receptor 2 (Homo sapiens) (UniProt Q8TDS4). The experiment in a line: Agonist activity at GPR109a receptor transfected in CHOK1 cells assessed as inhibition of forskolin-induced cAMP generation at 30 pM to 100 uM by HTRF assay. Format: functional, cell-based. The conditions noted are these: CHO-K1.
Sequence of Hydroxycarboxylic acid receptor 2 (Homo sapiens) (Q8TDS4 whole entry): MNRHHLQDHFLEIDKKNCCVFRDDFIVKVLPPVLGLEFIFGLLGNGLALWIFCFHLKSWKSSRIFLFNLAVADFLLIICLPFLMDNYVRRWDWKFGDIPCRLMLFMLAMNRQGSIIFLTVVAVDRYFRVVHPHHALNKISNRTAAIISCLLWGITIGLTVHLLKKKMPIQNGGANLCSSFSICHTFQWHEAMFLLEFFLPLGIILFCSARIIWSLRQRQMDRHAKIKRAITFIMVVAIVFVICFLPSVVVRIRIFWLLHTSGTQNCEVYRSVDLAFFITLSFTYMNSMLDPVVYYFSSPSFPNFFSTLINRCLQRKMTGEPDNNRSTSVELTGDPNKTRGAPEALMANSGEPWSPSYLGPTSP
Experiment [3] addresses T1, Hydroxycarboxylic acid receptor 3. To be noted: CHO-K1; 30 pM.
Experiment [4] has the same target. As to the kind of experiment: Agonist activity at GPR109b receptor transfected in forskolin-stimulated CHOK1 cells assessed as cAMP generation at 10 uM by HTRF assay. It counts as functional, cell-based. To be noted: CHO-K1.

The source of these data is ChEMBL document CHEMBL1152375 (Bioorg Med Chem Lett, 2009).

The source made the active and inactive calls. No cut-off for these calls is given here.

For orientation: EC50 means the concentration at which the effect is half-maximal.

T1 sequence (P49019 whole entry): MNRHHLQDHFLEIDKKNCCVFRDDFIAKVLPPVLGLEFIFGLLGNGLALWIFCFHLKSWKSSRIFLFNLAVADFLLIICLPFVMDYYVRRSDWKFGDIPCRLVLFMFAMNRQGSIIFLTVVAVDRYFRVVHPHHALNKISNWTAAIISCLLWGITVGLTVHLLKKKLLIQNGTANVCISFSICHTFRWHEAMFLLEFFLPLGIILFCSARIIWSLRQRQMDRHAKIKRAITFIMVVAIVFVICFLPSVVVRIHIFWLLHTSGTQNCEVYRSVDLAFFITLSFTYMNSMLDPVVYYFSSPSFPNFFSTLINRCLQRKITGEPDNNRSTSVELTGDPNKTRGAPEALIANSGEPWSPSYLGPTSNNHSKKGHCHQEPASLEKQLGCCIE

For `CCC(C)Nc1cc(C(=O)O)n[nH]1` (stereo unspecified), the concentration for a half-maximal effect (EC50) in experiment [1] is 4.47 µM. Also, the pEC50 result in experiment [2] was “inactive”.

`O=C(O)c1cc(N(Cc2ccoc2)Cc2ccoc2)[nH]n1`: the EC50 in experiment [1] is 8.91 µM. Also, the pEC50 result in experiment [2] was “inactive”.

`O=C(O)c1cc(N(Cc2cccc(F)c2)Cc2cccc(F)c2)[nH]n1`: in experiment [1], the concentration giving a half-maximal response (EC50) was > 10 µM.

As to `O=C(O)c1cc(N(Cc2ccc(F)cc2)Cc2ccc(F)cc2)[nH]n1`, the EC50 in experiment [1] is > 10 µM. Moreover, in experiment [2], the pEC50 entry was “inactive”.

In the case of `CC(C)CCN(CCC(C)C)c1cc(C(=O)O)n[nH]1`, the concentration giving a half-maximal response (EC50) in experiment [1] is > 10 µM.

On to `O=C(O)c1cc(N(Cc2ccsc2)Cc2ccco2)[nH]n1`, for which, in experiment [1], the EC50 was > 10 µM.

Turning to `Cc1ccc(CN(Cc2ccc(C)s2)c2cc(C(=O)O)n[nH]2)s1`, the pEC50 result in experiment [3] is “inactive”.

`O=C(O)c1cc(N(Cc2ccoc2)Cc2ccsc2)[nH]n1`: the pEC50 entry in experiment [3] is “inactive”.

`O=C(O)c1cc(NCc2ccccc2)[nH]n1`: the pEC50 result in experiment [3] is “inactive”.

In the case of `CCCCCCN(CCCCCC)c1cc(C(=O)O)n[nH]1`, in experiment [1], the half-maximal effective concentration (EC50) is > 10 µM.

`O=C(O)c1cc(N(CC2CC2)CC2CC2)[nH]n1`: in experiment [1], the EC50 was 3.98 µM. Also, in experiment [2], the pEC50 entry was “inactive”.

Consider `CCCN(CCC)c1cc(C(=O)O)n[nH]1`, for which the 50% effective concentration (EC50) in experiment [1] was 8.32 µM.

Regarding `O=C(O)c1cc(N(Cc2ccccc2)Cc2ccccc2)[nH]n1`, in experiment [1], the EC50 is 0.851 µM.

On to `O=C(O)c1cc(N(CC2CCCCC2)CC2CCCCC2)[nH]n1`, for which the pEC50 entry in experiment [3] is “inactive”.

Regarding `O=C(O)c1cc(N(Cc2ccc(Br)s2)Cc2ccc(Br)s2)[nH]n1`, in experiment [3], the pEC50 entry was “inactive”.

As for `O=C(O)c1cc(N(Cc2cccs2)Cc2cccs2)[nH]n1`, the EC50 in experiment [1] was 0.257 µM.

For the molecule `O=C(O)c1cc(N(Cc2ccsc2)Cc2cccs2)[nH]n1`, the EC50 in experiment [1] is 0.141 µM.

Turning to `O=C(O)c1cc(N(CCc2ccccc2)CCc2ccccc2)[nH]n1`, in experiment [1], the EC50 was 5.62 µM.

As to `O=C(O)c1cc(N(Cc2ccsc2)Cc2ccsc2)[nH]n1`, in experiment [1], the 50% effective concentration (EC50) is 0.00316 µM.

For `C=CCNc1ccc(C(=O)O)cn1`, the EC50 in experiment [1] is 0.0417 µM. In addition, the Activity in experiment [4] came out at 200%.

Turning to `O=C(O)c1cc(N(Cc2ccccc2F)Cc2ccccc2F)[nH]n1`, the EC50 in experiment [1] is 8.71 µM. Further, in experiment [2], the pEC50 entry was “inactive”.

Regarding `O=C(O)c1cc(N(Cc2ccccc2)Cc2ccsc2)[nH]n1`, the concentration giving a half-maximal response (EC50) in experiment [1] is 0.0145 µM.

Turning to `O=C(O)c1cc(N(Cc2ccc(F)cc2)Cc2ccsc2)[nH]n1`, the pEC50 entry in experiment [3] is “inactive”.

As to `CCCC(C)Nc1cc(C(=O)O)n[nH]1` (stereo unspecified), the EC50 in experiment [1] is 6.76 µM. In experiment [2], the pEC50 entry is “inactive”.
